# Experimental data: patent US11440923B2, “Substituted macrocyclic indole derivatives” (Bayer Aktiengesellschaft, priority 2017, dated 2022)
# Structures can show the parent of a compound that is named as a salt. Where two headings read alike, the source gives them in different places.
# How the values were obtained:
# [1] = tested on: MV-4-11 cells; assay: Antiproliferation assay MV-4-11 (Assay 7); type: cell-based; details: read-out: Antiproli MV-4-11 IC50 median, CellTiter-Glo
# In short: (§1)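 IC50 values reflect growth relative to a day 0 baseline (CI) and DMSO vehicle (C0). Viable cells were quantified by CellTiter-Glo luminescence after 72 h treatment at 37 °C.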
# [2] = tested on: A2780 cells; assay: Antiproliferation assay A2780 (Assay 7); type: cell-based
# Procedure: Assessment of the Anti-Proliferative Effect of Compounds in Different Cell Lines
# The impact of compounds on the proliferation of different cell lines was assessed using the CellTiter-Glo® Luminescent Cell Viability reagent from Promega (G7573).
# In parallel, cells were plated in a reference (day 0) plate for time zero determination. Cells were incubated in a humidified incubator at 37° C. overnight.
# Rim wells were excluded. The cells were incubated for 72 h hours in a humidified incubator at 37° C. The day 0 plate was measured by adding 30 μL/well of CTG solution (CellTiter-Glo® Luminescent Cell Viability reagent, Promega G7573) to time zero wells in the reference plate followed by a 10 minutes incubation and luminescence reading at 0.1 ms. using the PHERAstar FS microplate reader (BMG Labtech).
# After 72 h incubation, the treated plates were measured in the same way as the day 0 plate mentioned above. The Bella DRC Master Sheet was used to calculate IC50s, with CI=day 0 values and C0=DMSO control values.
# [3] = molecular target: T1, MCL-1 (Homo sapiens (Human), UniProt Q07820, K194A/K197A/R201A); assay: Protein-compound interaction assay (SPR assay, Assay 9); type: binding; details: for Kd: KD (geometric mean); for koff: read-out: koff (geometric mean), SPR, 25° C.; for kon: read-out: kon (geometric mean), SPR, 25° C.
# Text: Assay 9 Protein-Compound Interaction Assay (SPR Assay)
# The ability of the compounds described in this invention to bind to MCL-1 may be determined using surface plasmon resonance (SPR). This allows for the quantification of binding in terms of the equilibrium dissociation constant (KD [M]), as well as association and dissociation rate constants (kon [1/Ms] and koff [1/s], respectively). The measurements may be performed using Biacore® T200 or Biacore® S200 instruments (GE Healthcare).
# Briefly, carboxymethylated dextran biosensor chips (Series S Sensor Chip CMS, GE Healthcare) were activated with 1-ethyl-3-(3-dimethylaminopropyl)-carbodiimide hydrochloride (EDC) and N-hydroxysuccinimide (NHS) according to the supplier's instructions. MBP-MCL-1 was diluted in 1×PBS-P+ (GE Healthcare) and injected on the activated chip surface. Subsequently, a solution of 1 M ethanolamine-HCl (GE Healthcare) was injected to block unreacted groups, resulting in approximately 400-2500 response units (RU) of immobilized protein. A reference surface was generated by treatment with NHS-EDC and ethanolamine-HCl. […] Compounds were injected for 60 s followed by a dissociation time of up to 1000 s.
# The double-referenced sensorgrams were fit to a simple reversible Langmuir 1:1 reaction mechanism as implemented in the Biacore® T200 and S200 evaluation software (T200 evaluation software version 2.0 and S200 evaluation software version 1.0, GE Healthcare).
# Target sequence in this assay (Q07820 whole entry K194A/K197A/R201A, looked up): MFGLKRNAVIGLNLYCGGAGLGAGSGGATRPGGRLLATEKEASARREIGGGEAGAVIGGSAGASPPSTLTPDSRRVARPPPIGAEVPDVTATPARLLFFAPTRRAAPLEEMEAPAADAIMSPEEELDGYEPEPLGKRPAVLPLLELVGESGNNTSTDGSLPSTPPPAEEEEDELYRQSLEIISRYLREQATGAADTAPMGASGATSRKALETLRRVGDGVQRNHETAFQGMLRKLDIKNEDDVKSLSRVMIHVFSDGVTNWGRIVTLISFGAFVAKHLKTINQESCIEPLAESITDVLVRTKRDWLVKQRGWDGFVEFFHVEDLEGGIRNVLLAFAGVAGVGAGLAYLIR
# [4] = molecular target: T1, MCL-1; assay: Protein-protein interaction assay MCL-1/Noxa BH3 peptide (MCL-1 assay, TR-FRET); type: binding; details: MCL-1 Assay IC50 (median)
# In short: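 IC50 came from a 4-parameter regression of the 665/620 nm emission ratio, normalized to DMSO controls. The mix held 1 nM MBP-fused MCL-1 (residues 173-321), a biotin-Noxa BH3 tracer and compound in Tris buffer pH 7, incubated 10 min plus 1 h at 22° C., then overnight at 4° C.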
# Target sequence in this assay (Q07820 whole entry, looked up, stated change not applied): as the sequence (Q07820 whole entry K194A/K197A/R201A, looked up) above, with A194K, A197K, A201R counted along it
# [5] = tested on: SNU-389 cells; assay: Antiproliferation assay SNU-389 (Assay 7); type: cell-based; details: 72 h, CellTiter-Glo; read-out: Antiproli SNU-389 IC50
# In short: as §1
# [6] = tested on: SK-MEL-2 cells; assay: Antiproliferation assay SK-MEL-2 (Assay 7); type: cell-based; details: Homo sapiens, SK-MEL-2; 72 h, CellTiter-Glo; read-out: Antiproli SK-MEL-2 IC50 median
# In short: as §1
# [7] = tested on: SNU-16 cells; assay: Antiproliferation assay SNU-16 (Assay 7); type: cell-based; details: Homo sapiens, SNU-16; 72 h, CellTiter-Glo; read-out: Antiproli SNU-16 IC50 median
# In short: as §1
# [8] = tested on: A-431 cells; assay: Antiproliferation assay A-431 (Assay 7); type: cell-based; details: Homo sapiens, A-431; 72 h, CellTiter-Glo; read-out: Antiproli A-431 IC50 median
# In short: as §1
# [9] = tested on: DMS-114 cells; assay: Antiproliferation assay DMS-114 (Assay 7); type: cell-based; details: Homo sapiens; DMS-114 cells, 72 h, CellTiter-Glo; read-out: Antiproli DM-S114 IC50 median
# In short: as §1
# [10] = Homo sapiens, A2780, 72 h, read-out: Antiproli A2780 IC50 median, 72 h, CellTiter-Glo
# [11] = Homo sapiens, A2780, 72 h, CellTiter-Glo, read-out: Antiproli A2780 IC50 median
Structure (SMILES),IC50 ([1]; 72 h) [nM],"IC50 [2, 10] [nM]","Kd ([3]; SPR, 25° C.) [nM]","kon (geometric mean) ([3]; SPR, 25° C.)",koff [3] [s⁻¹],IC50 [4] [nM],IC50 [5] [nM],IC50 [6] [nM],IC50 [7] [nM],IC50 [8] [nM],IC50 [9] [nM],kon [3] [M⁻¹ s⁻¹],"IC50 ([2]; read-out: Antiproli A2780 IC50 median, 72 h, CellTiter-Glo, listed as 02) [nM]","IC50 [2, 11] [nM]","IC50 ([1]; Homo sapiens, MV4-11, 72 h) [nM]"
"CCc1c2c(nn1C)C(CCN1CCOCC1)OCCCCn1c(C(=O)O)c(CCCOc3cccc4ccccc34)c3ccc(F)c-2c31 (single isomer, unassigned; enantiomer 1) [Example 11, 3-ethyl-4-fluoro-2-methyl-15-[2-(morpholin-4-yl)ethyl]-7-{3-[(naphthalen-1-yl)oxy]propyl}-2,10,11,12,13,15-hexahydropyrazolo[4′,3′:9,10][1,6]oxazacycloundecino[8,7,6-hi]indole-8-carboxylic Acid—N-ethylethanamine Salt (Enantiomer 1)]",144,779,0.61,6.2 E6 1/M 1/s,0.0038,–,–,–,–,–,–,–,–,–,–
"CCc1c2c(nn1C)C(CCN1CCOCC1)OCCCCn1c(C(=O)O)c(CCCOc3cccc4cc(F)ccc34)c3ccc(F)c-2c31 (single isomer, unassigned; enantiomer 1) [Example 50, (+)-3-ethyl-4-fluoro-7-{3-[(6-fluoronaphthalen-1-yl)oxy]propyl}-2-methyl-15-[2-(morpholin-4-yl)ethyl]-2,10,11,12,13,15-hexahydropyrazolo[4′,3′:9,10][1,6]oxazacycloundecino[8,7,6-hi]indole-8-carboxylic Acid (Enantiomer 1)]",–,–,0.36,–,0.009,0.48,455,505,321,336,153,2.5e+07,–,–,–
"CCc1c2c(nn1C)C(CCC(C)(C)O)OCCCCn1c(C(=O)O)c(CCCOc3cccc4cc(F)ccc34)c3ccc(Cl)c-2c31 (single isomer, unassigned; enantiomer 1) [Example 75, (+)-4-chloro-3-ethyl-7-{3-[(6-fluoronaphthalen-1-yl)oxy]propyl}-15-(3-hydroxy-3-methylbutyl)-2-methyl-2,10,11,12,13,15-hexahydropyrazolo[4′,3′:9,10][1,6]oxazacycloundecino[8,7,6-hi]indole-8-carboxylic Acid—N-ethylethanamine Salt (Enantiomer 1)]",–,–,0.24,–,0.0022,–,133,170,152,135,77.4,9e+06,–,–,–
"Cc1c2c(nn1C)C(C)OCCCCn1c(C(=O)O)c(CCCOc3cccc4ccccc34)c3cccc-2c31 (single isomer, unassigned; stereoisomer 2) [Example 3, 2,3,15-trimethyl-7-[3-(naphthalen-1-yloxy)propyl]-2,10,11,12,13,15-hexahydropyrazolo[4′,3′:9,10][1,6]oxazacycloundecino[8,7,6-hi]indole-8-carboxylic Acid Trifluoroacetic Acid Salt (Stereoisomer 2)]",–,29900,–,–,–,22,–,–,–,–,–,–,–,–,–
"Cc1c2c(nn1C)C(C)OCCCCn1c(C(=O)O)c(CCCOc3cccc4ccccc34)c3cccc-2c31 (single isomer, unassigned; stereoisomer 1) [Example 2, 2,3,15-trimethyl-7-[3-(naphthalen-1-yloxy)propyl]-2,10,11,12,13,15-hexahydropyrazolo[4′,3′:9,10][1,6]oxazacycloundecino[8,7,6-hi]indole-8-carboxylic Acid Trifluoroacetic Acid Salt (Stereoisomer 1)]",–,–,11,–,0.067,1.2,–,–,–,–,–,5.9e+06,22800,–,–
"Cc1c2c(nn1C)C(C)OCCCCn1c(C(=O)O)c(CCCOc3cccc4ccccc34)c3cccc-2c31 (racemic) [Example 1, (rac)-2,3,15-trimethyl-7-[3-(naphthalen-1-yloxy)propyl]-2,10,11,12,13,15-hexahydropyrazolo[4′,3′:9,10][1,6]oxazacycloundecino[8,7,6-hi]indole-8-carboxylic Acid (Mixture of Stereoisomers)]",–,–,–,–,–,2.2,–,–,–,–,–,–,–,19500,–
"CCc1c2c(nn1C)C(CCN1CCOCC1)OCCCCn1c(C(=O)O)c(CCCOc3cccc4ccccc34)c3ccc(F)c-2c31 (racemic) [Example 10, (rac)-3-ethyl-4-fluoro-2-methyl-15-[2-(morpholin-4-yl)ethyl]-7-[3-(naphthalen-1-yloxy)propyl]-2,10,11,12,13,15-hexahydropyrazolo[4′,3′:9,10][1,6]oxazacycloundecino[8,7,6-hi]indole-8-carboxylic Acid]",–,–,1.1,–,0.01,0.72,–,–,–,–,–,9e+06,–,3430,110
"CCc1c2c(nn1C)C(CCN1CC(F)(F)C1)OCCCCn1c(C(=O)O)c(CCCOc3cccc4cc(F)ccc34)c3ccc(Cl)c-2c31 (single isomer, unassigned; (+)) [Example 78, (+)-4-chloro-15-[2-(3,3-difluoroazetidin-1-yl)ethyl]-3-ethyl-7-{3-[(6-fluoronaphthalen-1-yl)oxy]propyl}-2-methyl-2,10,11,12,13,15-hexahydropyrazolo[4′,3′:9,10][1,6]oxazacycloundecino[8,7,6-hi]indole-8-carboxylic Acid—N-ethylethanamine Salt]",–,–,0.33,–,0.0012,–,151,197,130,126,88.5,3.5e+06,–,–,–
